Data published in patent US4454314A, “Antibacterial mycaminosyl tylonolide and related macrolide derivatives” (Pfizer Inc., priority 1982, dated 1984).
≈ marks a conversion by molar mass, not a printed value. Where two headings read alike, the source gives them in different places.

Tests used:
[1] = test system: Strep. pyog. 203; test: In vitro antibacterial activity (MIC), BHI agar; format: cell-based; settings: 18 hours at 37° C., read-out: Minimum Inhibitory Concentration (MIC)
Experimental: (§1) The procedure which is followed is the one recommended by the International Collaborative Study on Antibiotic Sensitivity Testing [Ericcson and Sherris, Acta. Pathologica et Microbiologia Scandinav, Supp. 217, Sections A and B: 64-68 (1971)], and employs brain heart infusion (BHI) agar and the inocula replicating device. Overnight growth tubes are diluted 100 fold for use as the standard inoculum (20,000-10,000 cells in approximately 0.002 ml are placed on the agar surface; 20 ml of BHI agar/dish). Twelve 2 fold dilutions of the test compound are employed, with initial concentration of the test drug being 200 mcg/ml. Single colonies are disregarded when reading plates after 18 hours at 37° C. The susceptibility (MIC) of the test organism is accepted as the lowest concentration of compound capable of producing complete inhibition of growth as judged by the naked eye. A comparison of the in vitro activity of various compounds of the formulae (I) and (II) with tylonolide is recorded in Table 1.

[2] = test system: Strep. faec. 6; test: In vitro antibacterial activity (MIC), BHI agar; format: cell-based; settings: 18 hours at 37° C., read-out: Minimum Inhibitory Concentration (MIC)
Experimental: as §1

[3] = test system: Staph. epi. 111; test: In vitro antibacterial activity (MIC), BHI agar; format: cell-based; settings: 18 hours at 37° C., read-out: Minimum Inhibitory Concentration (MIC)
Experimental: as §1

[4] = test system: Staph. aur. 400; test: In vitro antibacterial activity (MIC), BHI agar; format: cell-based; settings: 18 hours at 37° C., read-out: Minimum Inhibitory Concentration (MIC)
Experimental: as §1

[5] = test system: Staph. epi. 126; test: In vitro antibacterial activity (MIC), BHI agar; format: cell-based; settings: 18 hours at 37° C., read-out: Minimum Inhibitory Concentration (MIC)
Experimental: as §1

[6] = test system: Neiss. sic.; test: In vitro antibacterial activity (MIC), BHI agar; format: cell-based; settings: 18 hours at 37° C., read-out: Minimum Inhibitory Concentration (MIC)
Experimental: as §1

[7] = test system: Staph. aur. 5; test: In vitro antibacterial activity (MIC), BHI agar; format: cell-based; settings: 18 hours at 37° C., read-out: Minimum Inhibitory Concentration (MIC)
Experimental: as §1

[8] = test system: Staph. aur. 52; test: In vitro antibacterial activity (MIC), BHI agar; format: cell-based; settings: 18 hours at 37° C., read-out: Minimum Inhibitory Concentration (MIC)
Experimental: as §1

[9] = test system: Bac. sub. 1; test: In vitro antibacterial activity (MIC), BHI agar; format: cell-based; settings: 18 hours at 37° C., read-out: Minimum Inhibitory Concentration (MIC)
Experimental: as §1

[10] = test system: infections by sensitive bacteria; test: In vivo activity against acute experimental infections in mice (PD50); settings: Mus musculus, sc; subcutaneous; mice infected intraperitoneally, at least one LD100; organism not given; read-out: PD50 (dose which protects 50% of the animals from infection)
Text: In determining such activity, acute experimental infections are produced in mice by the intraperitoneal inoculation of the mice with a standardized culture of the test organism suspended in 5 percent hog gastric mucin. Infection severity is standarized so that the mice receive at least one LD100 dose of the organism (LD100 : the minimum inoculum of organism required to consistently kill 100 percent of the infected, nontreated control mice). The test compound is then subcutaneously or orally administered at various dosage levels to groups of infected mice. At the end of the test, the activity of the mixture is assessed by counting the number of survivors among treated animals at a given dose. Activity is expressed as the percentage of animals which survive at a given dose, or calculated as a PD50 (dose which protects 50% of the animals from infection).

[11] = test system: E. coli 470; test: In vitro antibacterial activity (MIC), BHI agar; format: cell-based; settings: read-out: Minimum Inhibitory Concentration (MIC)
Experimental: as §1

[12] = test system: Past. mult. 1; test: In vitro antibacterial activity (MIC), BHI agar; format: cell-based; settings: 18 hours at 37° C., read-out: Minimum Inhibitory Concentration (MIC)
Experimental: as §1

[13] = test system: Strep. pneum. 12; test: In vitro antibacterial activity (MIC), BHI agar; format: cell-based; settings: 18 hours at 37° C., read-out: Minimum Inhibitory Concentration (MIC)
Experimental: as §1

[14] = test system: Staph. epi. 87; test: In vitro antibacterial activity (MIC), BHI agar; format: cell-based; settings: read-out: Minimum Inhibitory Concentration (MIC)
Experimental: as §1

[15] = Escherichia coli, E. coli 470, BHI agar, 18 hours at 37° C.

Compound | MIC [1] [µg/mL] | MIC [2] [µg/mL] | MIC [3] [µg/mL] | MIC [4] [µg/mL] | MIC [5] [µg/mL] | MIC [6] [µg/mL] | MIC [7] [µg/mL] | MIC [8] [µg/mL] | MIC [9] [µg/mL] | ED50 [10] [mg/kg] | MIC [11, 15] [µg/mL] | MIC [12] [µg/mL] | MIC [13] [µg/mL] | MIC ([14]; Staph. epi. 87, BHI agar, 18 hours at 37° C.) [µg/mL] | MIC ([14]; 18 h) [µg/mL] | MIC ([11]; Escherichia coli, 470, 18 h) [µg/mL]
CCC1OC(=O)CC(O)C(C)C(OC2OC(C)C(O)C(N(C)C)C2O)C(CC=O)CC(C)C(=O)C=CC(C)=CC1CI (stereo not shown) [(d)] | 0.1 (≈ 0.141 µM) | 3.12 (≈ 4.41 µM) | 0.78 (≈ 1.1 µM) | 1.56 (≈ 2.2 µM) | 6.25 (≈ 8.83 µM) | 0.78 (≈ 1.1 µM) | 0.39 (≈ 0.551 µM) | 0.39 (≈ 0.551 µM) | 0.78 (≈ 1.1 µM) |  |  |  |  |  |  | 
CCC1OC(=O)CC(O)C(C)C(OC2OC(C)C(O)C(N(C)C)C2O)C(CC=O)CC(C)C(=O)C=CC(C)=CC1CN(C)C (stereo not shown) [(h)] | 0.2 (≈ 0.32 µM) | 3.12 (≈ 4.99 µM) | 0.78 (≈ 1.25 µM) | 1.56 (≈ 2.5 µM) | 3.12 (≈ 4.99 µM) | 12.5 (≈ 20 µM) | 0.78 (≈ 1.25 µM) | 1.56 (≈ 2.5 µM) |  | 2.4 | 1.56 (≈ 2.5 µM) | 1.56 (≈ 2.5 µM) | 0.39 (≈ 0.624 µM) |  |  | 
CCC1OC(=O)CC(O)C(C)C(OC2OC(C)C(O)C(N(C)C)C2O)C(CC=O)CC(C)C(=O)C=CC(C)=CC1CCl (stereo not shown) [(g)] | 0.39 (≈ 0.633 µM) | 0.78 (≈ 1.27 µM) | 0.2 (≈ 0.325 µM) | 0.39 (≈ 0.633 µM) | 0.78 (≈ 1.27 µM) | 1.56 (≈ 2.53 µM) | 0.78 (≈ 1.27 µM) | 0.78 (≈ 1.27 µM) | 0.1 (≈ 0.162 µM) | 13 | 0.78 (≈ 1.27 µM) | 1.56 (≈ 2.53 µM) | 0.02 (≈ 0.0325 µM) | 25 (≈ 40.6 µM) |  | 
CCC1OC(=O)CC(O)C(C)C(OC2OC(C)C(O)C(N(C)C)C2O)C(CC=NN(C)C)CC(C)C(=O)C=CC(C)=CC1CI (stereo not shown) [(e)] | 0.1 (≈ 0.133 µM) | 0.39 (≈ 0.52 µM) | 0.2 (≈ 0.267 µM) | 0.2 (≈ 0.267 µM) | 0.78 (≈ 1.04 µM) | 0.39 (≈ 0.52 µM) | 0.2 (≈ 0.267 µM) | 0.2 (≈ 0.267 µM) | 0.1 (≈ 0.133 µM) | > 50 |  | 1.56 (≈ 2.08 µM) |  |  |  | 
CCC1OC(=O)CC(O)C(C)C(OC2OC(C)C(O)C(N(C)C)C2O)C(CC=NN(C)C)CC(C)C(=O)C=CC(C)=CC1COS(=O)(=O)c1ccc(C)cc1 (stereo not shown) [(c)] | 0.05 (≈ 0.063 µM) | 0.1 (≈ 0.126 µM) | 0.1 (≈ 0.126 µM) | 0.2 (≈ 0.252 µM) | 1.56 (≈ 1.96 µM) | 0.78 (≈ 0.982 µM) | 0.1 (≈ 0.126 µM) | 0.2 (≈ 0.252 µM) | 0.2 (≈ 0.252 µM) | 50 |  | 3.12 (≈ 3.93 µM) |  |  |  | 
CCC1OC(=O)CC(O)C(C)C(OC2OC(C)C(O)C(N(C)C)C2O)C(CC=O)CC(C)C(=O)C=CC(C)=CC1COS(=O)(=O)c1ccc(C)cc1 (stereo not shown) [(b)] | 0.2 (≈ 0.266 µM) | 0.39 (≈ 0.519 µM) | 1.56 (≈ 2.07 µM) | 0.78 (≈ 1.04 µM) | 1.56 (≈ 2.07 µM) | 1.56 (≈ 2.07 µM) | 0.78 (≈ 1.04 µM) | 0.78 (≈ 1.04 µM) | 0.78 (≈ 1.04 µM) | 19 |  | 3.12 (≈ 4.15 µM) |  |  |  | 
CCC1OC(=O)CC(OC(C)=O)C(C)C(OC2OC(C)C(O)C(N(C)C)C2O)C(CC=O)CC(C)C(=O)C=CC(C)=CC1CN(C)C (stereo not shown) [(f)] | 0.39 (≈ 0.585 µM) | 6.25 (≈ 9.37 µM) | 1.56 (≈ 2.34 µM) | 3.12 (≈ 4.68 µM) | 1.56 (≈ 2.34 µM) | 3.12 (≈ 4.68 µM) | 3.12 (≈ 4.68 µM) | 3.12 (≈ 4.68 µM) | 0.78 (≈ 1.17 µM) |  |  | 6.25 (≈ 9.37 µM) |  |  |  | 
CCC1OC(=O)CC(O)C(C)C(OC2OC(C)C(O)C(N(C)C)C2O)C(CC=O)CC(C)C(=O)C=CC(C)=CC1CO [(a), 5-(3,6-dideoxy-3-dimethylamino-beta-D-glucopyrnosyloxy)-6-formylmethyl-3-hydroxy-14-hydroxymethyl-4,8,12-trimethyl-9-oxo-10,12-heptadecadien-15-olide, reference compound] | 0.39 (≈ 0.652 µM) | 0.78 (≈ 1.3 µM) | 1.56 (≈ 2.61 µM) | 1.56 (≈ 2.61 µM) | 0.78 (≈ 1.3 µM) | 6.25 (≈ 10.5 µM) | 0.78 (≈ 1.3 µM) | 0.78 (≈ 1.3 µM) |  | 3.12 |  | 1.56 (≈ 2.61 µM) | 0.1 (≈ 0.167 µM) |  | 3.12 (≈ 5.22 µM) | 3.12 (≈ 5.22 µM)
